From patent US20260097012A1, “COMPOSITIONS AND METHODS FOR TREATING GRAFT-RELATED ARRHYTHMIA” (BlueRock Therapeutics LP, priority 2022, published 2026)

Tested on: graft related arrhythmias (sustained VT)
Assay: Treatment of graft-induced arrhythmia in pig model (myocardial infarction plus cardiomyocyte graft)
Conditions: pig P2, after VT on day 10/11; by day 13 onwards

## CCCCc1oc2ccccc2c1C(=O)c1cc(I)c(OCCN(CC)CC)c(I)c1 [amiodarone]
  effect of adjusting the dosage on rhythm: effective at achieving normal sinus rhythm
